# Measurements reported in ChEMBL document CHEMBL4825722, “Discovery of Potent Selective Nonzinc Binding Autotaxin Inhibitor BIO-32546” (ACS Med Chem Lett, 2021).
# Assays:
# [1] = Cmax in dog at 1.0 mg/kg, po; type: ADME, organism-based, Canis lupus familiaris; set-up: route oral, dose 1 mg/kg; conditions: in vivo
# [2] = AUC (0 to 24 hrs) in cynomolgus monkey at 1.0 mg/kg, po; type: ADME, organism-based, Macaca fascicularis; set-up: time < 24 hr, route oral, dose 1 mg/kg; conditions: in vivo
# [3] = Volume of distribution at steady state in cynomolgus monkey at 0.2 mg/kg, iv; type: ADME, organism-based, Macaca fascicularis; conditions: in vivo, read-out: Vdss
# Cytochrome P450 2C9 = Cytochrome P450 2C9 (Homo sapiens, UniProt P11712); assay: Inhibition of CYP2C9 in human liver microsomes incubated for 15 mins in presence of NADPH by LC-MS/MS analysis; type: ADME
# [4] = Tmax in C57BL/6 mouse brain at 10 mg/kg, po; type: ADME, organism-based
# [5] = target: Lysophosphatidic acid receptor 5 (Homo sapiens, UniProt Q9H1C0); assay: Inhibition of LPA5 (unknown origin)
# [6] = Unbound Cmax in C57BL/6 mouse brain at 10 mg/kg, po; type: ADME, organism-based; conditions: in vivo
# Rattus norvegicus [7] = assay: Effect on Sprague-Dawley rat CFA inflammatory […] model assessed as reduction in 20:4 LPA level at 0.3 mg/kg after 6 hrs by LC-MS/MS analysis; type: functional; set-up: scale not given: the % may be the effect or the level left
# [8] = AUC (0 to 24 hrs) in C57BL/6 mouse plasma at 10 mg/kg, po; type: ADME, organism-based; set-up: time < 24 hr, route oral, dose 10 mg/kg
# [9] = AUC (0 to 24 hrs) in C57BL/6 mouse plasma at 2.32 mg/kg; type: ADME, organism-based; set-up: time < 24 hr, dose 2.32 mg/kg
# [10] = Apparent permeability across apical to basolateral side in human Caco-2 cells incubated for 120 mins by lucifer yellow based LC-MS/MS analysis
# [11] = AUC (0 to 24 hrs) in cynomolgus monkey at 0.2 mg/kg, iv; type: ADME, organism-based, Macaca fascicularis; set-up: time < 24 hr, route intravenous, dose 0.2 mg/kg; conditions: in vivo
# Cytochrome P450 2C19 = Cytochrome P450 2C19 (Homo sapiens, UniProt P33261); assay: Inhibition of CYP2C19 in human liver microsomes incubated for 30 mins in presence of NADPH by LC-MS/MS analysis; type: ADME
# Autotaxin = Autotaxin (Homo sapiens, UniProt Q13822); assay: Inhibition of human ATX assessed as reduction in LPA formation using FS-3 as substrate preincubated for 30 mins followed by substrate addition and measured after 2 hrs by FRET assay
# [12] = Oral bioavailability in rat at 10 mg/kg; type: ADME, organism-based; conditions: in vivo
# [13] = Protein binding in rat plasma assessed as unbound fraction; type: ADME, cell-free
# [14] = Oral bioavailability in C57BL/6 mouse at 10 mg/kg; type: ADME, organism-based; conditions: in vivo
# [15] = target: Sphingosine 1-phosphate receptor 5 (Homo sapiens, UniProt Q9H228); assay: Inhibition of S1P5 (unknown origin)
# Rattus norvegicus [16] = assay: Effect on Sprague-Dawley rat CFA inflammatory […] model assessed as reduction in 20:4 LPA level at 0.1 mg/kg, po after 6 hrs by LC-MS/MS analysis; type: functional; set-up: scale not given: the % may be the effect or the level left
# [17] = Clearance in cynomolgus monkey at 0.2 mg/kg, iv; type: ADME, organism-based, Macaca fascicularis; conditions: in vivo
# [18] = target: Sphingosine 1-phosphate receptor 1 (Homo sapiens, UniProt P21453); assay: Inhibition of S1P1 (unknown origin)
# [19] = Tmax in dog at 1.0 mg/kg, po; type: ADME, organism-based, Canis lupus familiaris; conditions: in vivo
# [20] = Apparent permeability across basolateral to apical side in human Caco-2 cells incubated for 120 mins by lucifer yellow based LC-MS/MS analysis
# Cytochrome P450 3A4 = Cytochrome P450 3A4 (Homo sapiens, UniProt P08684); assay: Inhibition of CYP3A4 in human liver microsomes incubated for 15 mins in presence of NADPH by LC-MS/MS analysis; type: ADME
# [21] = Solubility of the compound at pH 7.0 by shake flask method; conditions: buffer
# Cytochrome P450 2D6 = Cytochrome P450 2D6 (Homo sapiens, UniProt P10635); assay: Inhibition of CYP2D6 in human liver microsomes incubated for 15 mins in presence of NADPH by LC-MS/MS analysis; type: ADME
# [22] = Cmax in C57BL/6 mouse brain at 2.32 mg/kg, iv; type: ADME, organism-based; set-up: route intravenous, dose 2.32 mg/kg
# [23] = Cmax in C57BL/6 mouse plasma at 2.32 mg/kg, iv; type: ADME, organism-based; set-up: route intravenous, dose 2.32 mg/kg
# Rattus norvegicus [24] = assay: Effect on Sprague-Dawley rat CFA inflammatory […] model assessed as reduction in 20:4 LPA level at 10 mg/kg, po after 6 hrs by LC-MS/MS analysis; type: functional; set-up: scale not given: the % may be the effect or the level left
# [25] = Clearance in C57BL/6 mouse plasma at 2.32 mg/kg; type: ADME, organism-based
# [26] = Drug concentration in mouse brain at 10 mg/kg, po; type: ADME, organism-based; conditions: in vivo
# [27] = Half life in rat at 1.0 mg/kg, iv; type: ADME, organism-based; conditions: in vivo
# [28] = target: Sphingosine 1-phosphate receptor 2 (Homo sapiens, UniProt O95136); assay: Inhibition of S1P2 (unknown origin)
# [29] = Drug concentration in Sprague-Dawley rat at 3 mg/kg, po after 6 hrs by LC-MS/MS analysis; type: ADME, organism-based; conditions: in vivo, read-out: Drug uptake
# [30] = Half life in dog at 0.2 mg/kg, iv; type: ADME, organism-based, Canis lupus familiaris; conditions: in vivo
# [31] = AUC (0 to 24 hrs) in C57BL/6 mouse brain at 10 mg/kg, po; type: ADME, organism-based; set-up: time < 24 hr, route oral, dose 10 mg/kg
# [32] = Cmax in C57BL/6 mouse plasma at 10 mg/kg, po; type: ADME, organism-based; set-up: route oral, dose 10 mg/kg
# [33] = Clearance in dog at 0.2 mg/kg, iv; type: ADME, organism-based, Canis lupus familiaris; conditions: in vivo
# [34] = Drug concentration in rat brain at 10 mg/kg, po after 4 hrs; type: ADME, organism-based; conditions: read-out: Ct
# [35] = target: Sphingosine 1-phosphate receptor 3 (Homo sapiens, UniProt Q99500); assay: Inhibition of S1P3 (unknown origin)
# [36] = Volume of distribution at steady state in C57BL/6 mouse plasma at 2.32 mg/kg; type: ADME, organism-based; conditions: read-out: Vdss
# [37] = Half life in C57BL/6 mouse plasma at 2.32 mg/kg; type: ADME, organism-based
# Sequence of Lysophosphatidic acid receptor 5 (Q9H1C0 whole entry): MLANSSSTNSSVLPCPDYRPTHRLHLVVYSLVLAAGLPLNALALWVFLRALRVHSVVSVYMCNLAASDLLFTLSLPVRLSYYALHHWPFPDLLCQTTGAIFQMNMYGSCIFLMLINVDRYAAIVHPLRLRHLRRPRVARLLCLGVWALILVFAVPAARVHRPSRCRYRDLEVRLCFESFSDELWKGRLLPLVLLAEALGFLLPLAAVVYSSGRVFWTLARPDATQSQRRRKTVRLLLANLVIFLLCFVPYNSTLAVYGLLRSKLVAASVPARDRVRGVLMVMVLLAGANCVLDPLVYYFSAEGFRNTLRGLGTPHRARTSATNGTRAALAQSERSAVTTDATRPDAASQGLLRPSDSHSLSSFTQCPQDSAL
# Sequence of Sphingosine 1-phosphate receptor 1 (P21453 whole entry): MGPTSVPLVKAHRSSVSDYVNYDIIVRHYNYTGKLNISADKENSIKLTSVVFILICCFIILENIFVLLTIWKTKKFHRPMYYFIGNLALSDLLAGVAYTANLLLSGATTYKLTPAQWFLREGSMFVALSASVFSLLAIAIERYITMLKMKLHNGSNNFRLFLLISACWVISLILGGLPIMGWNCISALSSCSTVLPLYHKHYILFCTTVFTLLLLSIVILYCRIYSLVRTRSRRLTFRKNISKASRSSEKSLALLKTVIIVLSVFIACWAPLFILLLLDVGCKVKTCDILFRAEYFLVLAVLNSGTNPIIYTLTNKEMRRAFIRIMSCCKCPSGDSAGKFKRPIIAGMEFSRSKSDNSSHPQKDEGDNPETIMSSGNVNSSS
# Sequence of Cytochrome P450 2C19 (P33261 whole entry): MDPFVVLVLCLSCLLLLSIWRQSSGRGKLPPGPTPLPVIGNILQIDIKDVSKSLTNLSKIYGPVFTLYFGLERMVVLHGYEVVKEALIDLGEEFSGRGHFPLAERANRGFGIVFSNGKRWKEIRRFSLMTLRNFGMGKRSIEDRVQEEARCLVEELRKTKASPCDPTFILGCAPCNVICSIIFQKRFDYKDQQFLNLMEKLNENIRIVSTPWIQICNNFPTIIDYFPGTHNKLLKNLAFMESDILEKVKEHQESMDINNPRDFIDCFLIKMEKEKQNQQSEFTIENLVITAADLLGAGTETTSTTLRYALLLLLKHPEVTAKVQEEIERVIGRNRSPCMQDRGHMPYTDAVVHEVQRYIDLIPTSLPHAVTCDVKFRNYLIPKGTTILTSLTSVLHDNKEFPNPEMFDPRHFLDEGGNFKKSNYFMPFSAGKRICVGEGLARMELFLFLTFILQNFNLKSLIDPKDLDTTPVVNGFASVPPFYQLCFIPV
# Sequence of Sphingosine 1-phosphate receptor 5 (Q9H228 whole entry): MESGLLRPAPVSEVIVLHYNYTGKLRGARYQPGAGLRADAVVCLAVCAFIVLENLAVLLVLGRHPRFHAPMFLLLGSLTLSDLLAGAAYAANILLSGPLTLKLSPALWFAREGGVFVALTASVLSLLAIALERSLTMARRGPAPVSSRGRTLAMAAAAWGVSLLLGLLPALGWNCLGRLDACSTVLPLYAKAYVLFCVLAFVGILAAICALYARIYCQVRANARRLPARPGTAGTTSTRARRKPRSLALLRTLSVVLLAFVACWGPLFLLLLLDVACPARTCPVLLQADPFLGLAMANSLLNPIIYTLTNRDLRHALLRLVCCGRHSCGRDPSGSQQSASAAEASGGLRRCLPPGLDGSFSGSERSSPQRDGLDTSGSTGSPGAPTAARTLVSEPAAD
# Sequence of Sphingosine 1-phosphate receptor 2 (O95136 whole entry): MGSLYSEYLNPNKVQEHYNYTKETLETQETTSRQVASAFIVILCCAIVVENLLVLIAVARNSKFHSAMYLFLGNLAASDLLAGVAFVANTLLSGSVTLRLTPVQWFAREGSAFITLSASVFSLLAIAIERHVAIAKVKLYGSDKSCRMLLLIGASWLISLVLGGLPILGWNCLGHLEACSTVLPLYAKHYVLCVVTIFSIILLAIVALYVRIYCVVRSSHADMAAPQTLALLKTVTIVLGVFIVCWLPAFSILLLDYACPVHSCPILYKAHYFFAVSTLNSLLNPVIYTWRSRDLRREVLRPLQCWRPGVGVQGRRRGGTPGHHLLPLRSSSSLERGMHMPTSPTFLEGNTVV
# Sequence of Sphingosine 1-phosphate receptor 3 (Q99500 whole entry): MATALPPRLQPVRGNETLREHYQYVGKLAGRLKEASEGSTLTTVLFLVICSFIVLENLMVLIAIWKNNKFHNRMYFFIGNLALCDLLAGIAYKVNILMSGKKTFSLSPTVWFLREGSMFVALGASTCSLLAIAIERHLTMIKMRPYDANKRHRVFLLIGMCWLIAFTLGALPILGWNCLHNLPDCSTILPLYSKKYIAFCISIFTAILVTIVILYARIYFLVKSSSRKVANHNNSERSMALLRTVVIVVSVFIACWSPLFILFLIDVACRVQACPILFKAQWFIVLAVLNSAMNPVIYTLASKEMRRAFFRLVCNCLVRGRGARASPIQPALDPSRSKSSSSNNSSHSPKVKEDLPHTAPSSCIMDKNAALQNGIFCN
# Sequence of Cytochrome P450 3A4 (P08684 whole entry): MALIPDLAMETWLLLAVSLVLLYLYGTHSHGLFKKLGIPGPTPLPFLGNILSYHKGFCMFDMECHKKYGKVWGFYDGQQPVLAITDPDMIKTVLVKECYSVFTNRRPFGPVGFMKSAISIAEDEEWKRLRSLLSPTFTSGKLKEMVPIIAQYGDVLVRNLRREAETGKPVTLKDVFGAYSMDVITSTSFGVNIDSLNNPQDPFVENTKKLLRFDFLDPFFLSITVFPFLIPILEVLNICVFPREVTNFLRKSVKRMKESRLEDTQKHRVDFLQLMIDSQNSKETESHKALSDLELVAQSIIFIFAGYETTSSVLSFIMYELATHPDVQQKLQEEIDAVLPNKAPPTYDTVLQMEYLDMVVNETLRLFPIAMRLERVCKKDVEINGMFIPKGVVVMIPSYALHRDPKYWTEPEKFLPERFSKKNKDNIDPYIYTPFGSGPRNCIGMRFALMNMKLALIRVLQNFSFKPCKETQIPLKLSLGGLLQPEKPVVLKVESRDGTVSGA
# Sequence of Cytochrome P450 2C9 (P11712 whole entry): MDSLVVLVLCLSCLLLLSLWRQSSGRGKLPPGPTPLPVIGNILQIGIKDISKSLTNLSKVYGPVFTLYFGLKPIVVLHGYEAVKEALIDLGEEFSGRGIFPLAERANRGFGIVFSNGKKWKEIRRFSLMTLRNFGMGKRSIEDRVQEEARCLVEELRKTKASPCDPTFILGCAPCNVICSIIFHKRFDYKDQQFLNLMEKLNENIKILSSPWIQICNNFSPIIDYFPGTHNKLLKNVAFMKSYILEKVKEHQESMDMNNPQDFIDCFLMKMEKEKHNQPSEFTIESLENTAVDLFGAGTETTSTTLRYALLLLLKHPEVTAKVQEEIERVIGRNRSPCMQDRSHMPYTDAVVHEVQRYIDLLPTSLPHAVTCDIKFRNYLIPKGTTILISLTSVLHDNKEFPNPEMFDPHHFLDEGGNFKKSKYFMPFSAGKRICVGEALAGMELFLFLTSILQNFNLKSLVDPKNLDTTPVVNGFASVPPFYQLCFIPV
# Sequence of Cytochrome P450 2D6 (P10635 whole entry): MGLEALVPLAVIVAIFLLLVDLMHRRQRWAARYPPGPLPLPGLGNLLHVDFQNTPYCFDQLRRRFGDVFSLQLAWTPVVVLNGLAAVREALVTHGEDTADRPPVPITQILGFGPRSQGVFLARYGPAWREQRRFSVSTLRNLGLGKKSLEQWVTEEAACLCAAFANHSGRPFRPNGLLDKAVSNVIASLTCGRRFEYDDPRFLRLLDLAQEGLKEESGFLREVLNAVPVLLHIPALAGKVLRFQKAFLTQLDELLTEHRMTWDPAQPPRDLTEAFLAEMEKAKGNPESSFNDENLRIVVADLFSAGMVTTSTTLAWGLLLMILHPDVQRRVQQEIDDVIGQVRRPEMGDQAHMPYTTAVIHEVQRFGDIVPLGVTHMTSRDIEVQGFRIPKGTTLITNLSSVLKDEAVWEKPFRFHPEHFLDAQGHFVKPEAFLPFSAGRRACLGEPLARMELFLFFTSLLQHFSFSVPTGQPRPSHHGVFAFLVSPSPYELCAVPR
structure (smiles),measurement,setting,value
C[C@@H](c1ccc2ccc(O[C@H]3CC[C@@H](C(F)(F)F)CC3)c(C(F)(F)F)c2c1)N1C2CCC1CC(C(=O)O)C2 (some centres not stated),Cmax,[1],376 ng/mL
same,AUC(0-t) at 24 h,[2],614 ng·h/mL
same,Vd,[3],2.4 L/kg
same,IC50,Cytochrome P450 2C9,> 10 µM
same,Tmax,[4],7 h
same,IC50,[5],> 10 µM
same,fCmax,[6],1.5 nM
same,Activity,Rattus norvegicus [7],92%
same,AUC(0-t) at 24 h,[8],12200 ng·h/mL
same,AUC(0-t) at 24 h,[9],6170 ng·h/mL
same,Papp A→B at 2 h,[10],16.8 ×10⁻⁶ cm/s
same,AUC(0-t) at 24 h,[11],369 ng·h/mL
same,IC50,Cytochrome P450 2C19,> 10 µM
same,IC50,Autotaxin,0.001 µM
same,bioavailability,[12],66%
same,Fu,[13],0.45%
same,bioavailability,[14],51%
same,IC50,[15],> 10 µM
same,Activity,Rattus norvegicus [16],89%
same,clearance,[17],9.3 mL/min/kg
same,IC50,[18],> 10 µM
same,Tmax,[19],2 h
same,Papp B→A at 2 h,[20],40.3 ×10⁻⁶ cm/s
same,IC50,Cytochrome P450 3A4,> 10 µM
same,solubility thermodynamic,[21],73.2 µg/mL
same,IC50,Cytochrome P450 2D6,> 10 µM
same,Cmax,[22],274 ng/mL
same,Cmax,[23],1270 ng/mL
same,Activity,Rattus norvegicus [24],48%
same,clearance,[25],6.09 mL/min/kg
same,AUC,[26],8840 ng·h/mL
same,half-life,[27],3 h
same,IC50,[28],> 10 µM
same,concentration at 6 h,[29],42 ng/mL
same,half-life,[30],14 h
same,AUC(0-t) at 24 h,[31],8840 ng·h/mL
same,Cmax,[32],1070 ng/mL
same,clearance,[33],1.7 mL/min/kg
same,concentration at 4 h,[34],97 ng/mL
same,IC50,[35],> 10 µM
same,Vd,[36],2.36 L/kg
same,half-life,[37],4.72 h
